Tests used:
Plasmopara viticola = format: in vivo; conditions: 200 ppm; grape vine leaf disks, preventative; inoculated 1 day after application; assessed 6-8 days after application
Phytophthora infestans = format: in vivo; conditions: 200 ppm; tomato leaf disks, preventative; inoculated 1 day after application; assessed 5-7 days after application
Pythium ultimum = assay: Pythium ultimum/Liquid Culture (Seedling Damping Off); format: cell-based; conditions: Globisporangium ultimum, read-out: control of Pythium ultimum (inhibition of growth determined photometrically)

Row | Compound | control of Plasmopara viticola (percent disease control compared to untreated) (Plasmopara viticola) | control of Phytophthora infestans (percent disease control compared to untreated) (Phytophthora infestans) | inhibition at 20 ppm (Pythium ultimum) [%]
1 | COC(=O)Nc1ccc(-c2cnc3c(C)cc(C(=O)N(C)c4ccc(F)c(C)c4)nn23)cn1 [Compound 1, methyl N-[5-[6-[(4-fluoro-3-methyl-phenyl)-methyl-carbamoyl]-8-methyl-imidazo[1,2-b]pyridazin-3-yl]-2-pyridyl]carbamate] | at least 80% |  | 
2 | COC(=O)Nc1ccc(-c2cnc3c(C)cc(C(=O)N4CCCc5cc(F)ccc54)nn23)cn1 [Compound 2, methyl N-[5-[6-(6-fluoro-3,4-dihydro-2H-quinoline-1-carbonyl)-8-methyl-imidazo[1,2-b]pyridazin-3-yl]-2-pyridyl]carbamate] |  | at least 80% | 
3 | COC(=O)Nc1ccc(-c2cnc3c(C)cc(C(=O)N(C)c4ccc(F)cc4)nn23)cn1 [Compound 3, methyl N-[5-[6-[(4-fluorophenyl)-methyl-carbamoyl]-8-methyl-imidazo[1,2-b]pyridazin-3-yl]-2-pyridyl]carbamate] | at least 80% | at least 80% | 
4 | COC(=O)Nc1ccc(-c2cnc3c(C)cc(C(=O)N(C)c4ccc(F)c(OC)c4)nn23)cn1 [Compound 4, methyl N-[5-[6-[(4-fluoro-3-methoxy-phenyl)-methyl-carbamoyl]-8-methyl-imidazo[1,2-b]pyridazin-3-yl]-2-pyridyl]carbamate] | at least 80% | at least 80% | ≥ 80
5 | COC(=O)Nc1ccc(-c2cnc3ccc(C(=O)N(C)c4ccc(F)c(OC)c4)nn23)cn1 [Compound 8, methyl N-[5-[6-[(4-fluoro-3-methoxy-phenyl)-methyl-carbamoyl]imidazo[1,2-b]pyridazin-3-yl]-2-pyridyl]carbamate] | at least 80% | at least 80% | ≥ 80
